# Measured values from patent US11365183B2, “Eicosanoid derivatives” (MAX-DELBRUECK-CENTRUM FUER MOLEKULARE MEDIZIN, priority 2009, dated 2022).
# “Also recorded” adds a separate entry of the source.
# Assays:
# [1] = test system: neonatal rat cardiomyocytes (NRCMs); assay: Chronotropic effect on spontaneous beating rate of cultured neonatal rat cardiomyocytes (identification of agonists); type: cell-based; details: for chronotropic effect (Δ beats/min), mean±SE / agonistic / chronotropic effect on NRCMs, in words: 30 nM, incubation time 5 min; for chronotropic effect (Δ beats/min), mean±SE: NRCM clusters; for agonistic / chronotropic effect on NRCMs, in words: compound alone
# Source text: This negative chronotropic effect reflects the capacity of the analogs to interact with and to activate a G-protein coupled receptor or other primary cellular targets that reduce the contractility of cardiomyocytes under basal and stress-induced conditions.
# The compounds included EPA and 17,18-EETeTr (compounds 01 and 02; purchased from Cayman Chemical) as well as all but one (compound 16) of the analogs synthesized as described in examples 1-24. The R,S— and S,R-enantiomers of 17,18-EETeTr (compounds 03 and 04) were prepared resolving the racemic mixture (compound 02) by means of chiral-phase HPLC as described previously (Barbosa-Sicard E, Markovic M, Honeck H, Christ B, Muller D N, Schunck W H. Biochem Biophys Res Commun. 2005 Apr. 22; 329(4):1275-81). Before use, the compounds to be tested were prepared as 1000-fold stock solutions in ethanol.
# Isolation and cultivation of NRCMs were performed as described previously (Wallukat, G; Wollenberger, A. Biomed Biochim Acta. 1987; 78:634-639; Wallukat G, Homuth V, Fischer T, Lindschau C, Horstkamp B, Jupner A, Baur E, Nissen E, Vetter K, Neichel D, Dudenhausen J W, Haller H, Luft F C. J Clin Invest. 1999; 103: 945-952). Briefly, neonatal Wistar rats (1-2 days old) were killed in conformity to the recommendations of the Community of Health Service of the City of Berlin and the cardiomyocytes were dissociated from the minced ventricles with a 0.2% solution of crude trypsin. The isolated cells were then cultured as monolayers on the bottom (12.5 cm^2) of Falcon flasks in 2.5 ml of Halle S M 20-I medium equilibrated with humidified air. The medium contained 10% heat-inactivated FCS and 2 μmol/l fluoro-deoxyuridine (Serva, Heidelberg, Germany), the latter to prevent proliferation of non-muscle cells. The NRCMs (2.4×10^6 cells/flask) were cultured at 37° C. in an incubator. After 5 to 7 days, the NRCMs formed spontaneously beating cell clusters. […] On the day of the experiment, the culture medium was replaced by 2.0 ml fresh serum-containing medium. Two hours later, the beating rates were monitored at 37° C. using an inverted microscope equipped with a heating stage. To determine the basal rate, 6 to 8 individual clusters were selected and the number of contractions was counted for 15 sec. After that, the compound to be tested was added to the culture and the beating rate of the same clusters was monitored 5 min later again. Based on the difference between the basal and compound-induced beating rate of the individual clusters, the chronotropic effects (Δ beats/min) were calculated and are given as mean±SE values. N refers to the number of clusters monitored which originated, in general, from at least three independent NRCM cultures.
# This effect was fully expressed using an EPA concentration of 3.3 μM and an incubation time of 30 min. In contrast, 17,18-EETeTr (C02) produced the same effect almost immediately and already in the low nanomolar range (EC50 of 1-2 nM, data not shown). To compare the activity of 17,18-EETeTr with that of its synthetic analogs, all these compounds were tested at a final concentration of 30 nM and using an incubation time of 5 min.
# [2] = test system: neonatal rat cardiomyocytes (NRCMs); assay: NRCM bioassay with pharmacological inhibitors (mechanism of cellular action); type: cell-based; details: for inhibition of the negative chronotropic effects of EPA, 17,18-EETeTr and C13: 5 min preincubation, 11,12-EET 30 nM, C3, AH6089 10 μM, EPA 3.3 μM, 17,18-EETeTr 30 nM, C13 30 nM; for inhibition of the negative chronotropic effects of EPA, 17,18-EETeTr and C13 / blocking of the positive chronotropic effect of butaprost: calphostin C 100 nM, H89 1 μM; for blocking of the positive chronotropic effect of butaprost: butaprost 100 nM, AH6089 10 μM
# Method: The bioassay with NRCMs was performed as described in examples 25 and 26. […] The cultured NRCMs were preincubated without or with one of the compounds indicated in FIG. 4 for 5 min before the effect of the following agonists was determined: EPA (3.3 μM), 17,18-EETeTr (30 nM) or C13 (30 nM). In some experiments, the NRCMs were stimulated with a selective EP2 prostanoid receptor agonist (butaprost from Sigma-Aldrich; used at a final concentration of 100 nM) to provide a control for the effect of certain inhibitors.
# [3] = test system: neonatal rat cardiomyocytes (NRCMs); assay: Antagonism of the negative chronotropic effect of agonists in NRCMs (identification of antagonists); type: cell-based; details: for inhibition of the agonistic effect of compound C4: 5 min preincubation, C4 and potential antagonist each 30 nM
# Method: These antagonists were selected based on their capacity to abolish the negative chronotropic effects of EPA, 17,18-EETeTr and their synthetic agonists on the contractility of neonatal rat cardiomyocytes.
# Potential antagonists included compounds C1, C3, C5, C6, C7, and C8, which were synthesized as described above in the corresponding examples.
# The bioassay was performed with NRCMs as described in example 25. In the first series of experiments, compound C4 was used as the agonist and its effect was determined after preincubating the cultured NRCMc for 5 min with one of the potential antagonists. Both C4 and the potential antagonist were used at a final concentration of 30 nM.
compound,measurement,setting,value
"CCC1OC1C/C=C/C/C=C/C/C=C/C/C=C/CCCC(=O)O (stereo not shown) [17,18-EETeTr, reference compound]","chronotropic effect (Δ beats/min), mean±SE",[1],−22.5±0.8 beats/min
same,EC50,"[1]; NRCMs, effect almost immediate, data not shown, read-out: EC50 of reduction of the beating rate",1 to 2 nM
same,"agonistic / chronotropic effect on NRCMs, in words",[1],acted as agonist
"CCNC(=O)NCCCC/C=C\CCCCCCCCCC(=O)OCCOCCOCCO [Compound C18, 2-(2-(2-Hydroxyethoxy)ethoxy)ethyl 16-(3-ethylureido)hexadec-11 (Z)-enoate]","agonistic / chronotropic effect on NRCMs, in words",[1],Agonists
"CCC1OC1CCCC/C=C\CCCCCCCCCC(=O)O (stereo not shown) [Compound C4, 16-[(Z)-3-Ethyloxiranyl]hexadec-11(Z)-enoic Acid]","chronotropic effect (Δ beats/min), mean±SE",[1],−18.3±1.5 beats/min
same,"agonistic / chronotropic effect on NRCMs, in words",[1],Agonists; also recorded: agonistic effects
"CCCCC/C=C\CC1OC1C/C=C\C/C=C\CCCC(=O)O (stereo not shown) [11,12-EET, 11,12-epoxyeicosatrienoic acid]","inhibition of the negative chronotropic effects of EPA, 17,18-EETeTr and C13",[2],strongly inhibited
"CNC(=O)C(=O)NCCCC/C=C\CCCCCCCCCC(=O)O [Compound C13, 16-(2-(methylamino)-2-oxoacetamido)hexadac-11(Z)-enoic acid]","chronotropic effect (Δ beats/min), mean±SE",[1],−33.7±1.3 beats/min
same,"agonistic / chronotropic effect on NRCMs, in words",[1],Agonists
"CCCCNC(=O)CCC/C=C\CCCCCCCCCC(=O)O [Compound C24, 16-(Butylamino)-16-oxohexadec-11 (Z)-enoic acid]",melting point,,78.2 to 78.8 °C
same,"agonistic / chronotropic effect on NRCMs, in words",[1],Agonists; also recorded: maintain
"CC/C=C\C/C=C\C/C=C\C/C=C\C/C=C\CCCC(=O)O [EPA, eicosapentaenoic acid, reference compound]",concentration resulting in a progressive reduction of the beating rate,[1]; NRCM cultures,above 1 μM
same,concentration at which the reduction of the beating rate was fully expressed,[1]; incubation time of 30 min,3.3 µM
O=S(=O)(NCCNC/C=C/c1ccc(Br)cc1)c1cccc2cnccc12 [Compound H89],"inhibition of the negative chronotropic effects of EPA, 17,18-EETeTr and C13",[2],not affected
same,blocking of the positive chronotropic effect of butaprost,[2],blocked
"CCC1OC1C/C=C\CCCCCCC/C=C\CCCC(=O)O (stereo not shown) [Compound C1, (5Z,14Z)-16-(3-Ethyloxirane-2-yl)hexadeca-5,14-dienoic acid]","agonistic / chronotropic effect on NRCMs, in words",[1],inactive when tested alone
same,inhibition of the agonistic effect of compound C4,[3],did not inhibit
"CCC1OC1C/C=C\CCCC/C=C\CCCCCCC(=O)O (stereo not shown) [Compound C3, (8Z,14Z)-16-(3-Ethyloxirane-2-yl)hexadeca-8,14-dienoic Acid]","agonistic / chronotropic effect on NRCMs, in words",[1],did not exert any significant effect
same,inhibition of the agonistic effect of compound C4,[3],significantly inhibited
same,effect on the negative chronotropic effect of EPA,"[3]; antagonist 30 nM, EPA 3.3 μM",abolished
same,"antagonistic effect against C4, EPA, 17,18-EETeTr, C2 and C13","[3]; antagonist 30 nM, EPA 3.3 μM, other agonists 30 nM each",highly potent antagonist
same,effect on the negative chronotropic effect of C13,[3]; both analogs in equimolar concentrations (30 nM),almost completely blocked
same,"inhibition of the negative chronotropic effects of EPA, 17,18-EETeTr and C13",[2],strongly inhibited
same,blocking of the positive chronotropic effect of butaprost,[2],not
"CCC1OC1CCCCCCCCCC/C=C\CCCC(=O)O (stereo not shown) [Compound C7, 16-[(Z)-3-Ethyloxiranyl]hexadec-5(Z)-enoic Acid]","agonistic / chronotropic effect on NRCMs, in words",[1],inactive when tested alone
same,inhibition of the agonistic effect of compound C4,[3],did not inhibit
"CCC1OC1CCCC/C=C\CCCC/C=C\CCCC(=O)O (stereo not shown) [Compound C2, (5Z,11Z)-16-(3-Ethyloxirane-2-yl)hexadeca-5,11-dienoic acid]","agonistic / chronotropic effect on NRCMs, in words",[1],Agonists
CCCC1([C@H](O)C/C=C/[C@H]2[C@H](O)CC(=O)[C@@H]2CCCCCCC(=O)OC)CCC1 [butaprost],chronotropic effect on NRCMs,[2]; 100 nM,positive chronotropic effect
calphostin C,"inhibition of the negative chronotropic effects of EPA, 17,18-EETeTr and C13",[2],strongly inhibited
same,blocking of the positive chronotropic effect of butaprost,[2],not
CC(C)Oc1ccc2c(=O)c3cc(C(=O)O)ccc3oc2c1 [AH6089],"inhibition of the negative chronotropic effects of EPA, 17,18-EETeTr and C13",[2],strongly inhibited
same,blocking of the positive chronotropic effect of butaprost,[2],blocked
"CCCC(=O)NCCCC/C=C\CCCCCCCCCC(=O)O [Compound C12, 16-(Butyrylamino)hexadec-11(Z)-enoic acid]",melting point,,99.2 to 99.6 °C
same,"agonistic / chronotropic effect on NRCMs, in words",[1],largely inactive
"CCC1OC1C/C=C\CCCCCCCCCCCCC(=O)O (stereo not shown) [Compound C5, 16-[(Z)-3-Ethyloxiranyl]hexadec-14(Z)-enoic Acid]","agonistic / chronotropic effect on NRCMs, in words",[1],no effect; also recorded: did not exert any significant effect
same,inhibition of the agonistic effect of compound C4,[3],significantly inhibited
"CCC1OC1CCCCCCC/C=C\CCCCCCC(=O)O (stereo not shown) [Compound C6, 16-[(Z)-3-Ethyloxiranyl]hexadec-8(Z)-enoic Acid]","agonistic / chronotropic effect on NRCMs, in words",[1],inactive when tested alone
same,inhibition of the agonistic effect of compound C4,[3],did not inhibit
"CCC1OC1CCCCCCCCCCCCCCCC(=O)O (stereo not shown) [Compound C8, 16-[(Z)-3-Ethyloxiranyl]hexadecanoic Acid]",melting point,,62.1 to 62.5 °C
same,"agonistic / chronotropic effect on NRCMs, in words",[1],inactive when tested alone
same,inhibition of the agonistic effect of compound C4,[3],did not inhibit
"CCCC(=O)NC/C=C\CCCCCCCCCCCCC(=O)O [Compound C22, 16-Butyramidohexadec-14(Z)-enoic acid]",melting point,,72.7 to 73.1 °C
same,"agonistic / chronotropic effect on NRCMs, in words",[1],positive chronotropic effect
